The numbers were not newly measured in US12440459B2, “Norepinephrine compositions and methods therefor” (Nevakar Injectables Inc., priority 2017, dated 2025), which cites them from elsewhere.

The conditions of this series: Int J Toxicol. 2002; 21 Suppl 2:19-94.

Regarding `COc1ccc(O)c(C(C)(C)C)c1` [butylated hydroxyl anisole], the “renal and hepatic damage” value was “some renal and hepatic damage”.
